We go through 19 molecules from patent publication US9765058B2, “Substituted benzylpyrazoles” (BAYER PHARMA AKTIENGESELLSCHAFT, priority 2013, dated 2017).

Molecules are shown by their SMILES. Where two headings read alike, the source gives them in different places.

Assay [1] addresses catalytic domain of human Bub1 (amino acids 704-1085) (Homo sapiens (Human), UniProt O43683). Put plainly: Bub1 kinase assay (TR-FRET). The format is biochemical. The conditions noted are these: read-out: Biological Assay 1: Bub1 kinase assay median IC50. How it is done:
The stopped reaction mixture was further incubated 1 h at 22° C. in order to allow the formation of complexes between peptides and detection reagents. Subsequently, the amount of product was evaluated by measurement of the resonance energy transfer from the Eu-chelate-antibody complex recognizing the Phosphoserine residue to the streptavidin-XL665 bound to the biotin moiety of the peptide. […] IC50 values were calculated by fitting the normalized inhibition data to a 4-parameter logistic equation (Minimum, Maximum, IC50, Hill; Y=Max+(Min−Max)/(1+(X/IC50)Hill)).

The test system of the next assay is HeLa cell line. As to the kind of experiment: Proliferation assay (crystal violet). The conditions noted are these: Homo sapiens, 96 h, read-out: Biological Assay 2: Proliferation assay (HeLa cell line) median IC50.
[2] abbreviates: TR-FRET, 10 μM ATP, 1 μM peptide substrate.

Description for HeLa cell line: Cultivated tumor cells (cells were ordered from ATCC, except HeLa-MaTu and HeLa-MaTu-ADR, which were ordered from EPO-GmbH, Berlin) were plated at a density of 1000 to 5000 cells/well, depending on the growth rate of the respective cell line, in a 96-well multititer plate in 200 μL of their respective growth medium supplemented 10% fetal calf serum. After 24 hours, the cells of one plate (zero-point plate) were stained with crystal violet (see below), while the medium of the other plates was replaced by fresh culture medium (200 μL), to which the test substances were added in various concentrations (0 μM, as well as in the range of 0.001-10 μM; the final concentration of the solvent dimethyl sulfoxide was 0.5%). The cells were incubated for 4 days in the presence of test substances. Cell proliferation was determined by staining the cells with crystal violet: the cells were fixed by adding 20 μL/measuring point of an 11% glutaric aldehyde solution for 15 minutes at room temperature. After three washing cycles of the fixed cells with water, the plates were dried at room temperature. The cells were stained by adding 100 μL/measuring point of a 0.1% crystal violet solution (pH 3.0). After three washing cycles of the stained cells with water, the plates were dried at room temperature. The dye was dissolved by adding 100 μl/measuring point of a 10% acetic acid solution. Absorbtion was determined by photometry at a wavelength of 595 nm. The change of cell number, in percent, was calculated by normalization of the measured values to the absorbtion values of the zero-point plate (=0%) and the absorbtion of the untreated (0 μm) cells (=100%). The IC50 values were determined by means of a 4 parameter fit.

In the case of `CCOc1cc(F)c(Cn2nc(-c3ncc(OC)c(Nc4ccncc4C(N)=O)n3)c(F)c2C)c(F)c1` [Example 2-4-5, 4-({2-[1-(4-ethoxy-2,6-difluorobenzyl)-4-fluoro-5-methyl-1H-pyrazol-3-yl]-5-methoxypyrimidin-4-yl}amino)pyridine-3-carboxamide], the IC50 in assay [1] (setting [2]) was 11 nM; in the assay on HeLa cell line, greater than 10000 nM.
The matching figures for `CCOc1cc(F)c(Cn2nc(-c3ncc(OC)c(Nc4ccncc4)n3)c(C)c2C#N)c(F)c1` [Example 2-2-12, 1-(4-ethoxy-2,6-difluorobenzyl)-3-[5-methoxy-4-(pyridin-4-ylamino)pyrimidin-2-yl]-4-methyl-1H-pyrazole-5-carbonitrile]: 100 nM and greater than 10000 nM.
The matching figures for `CCOc1cc(F)c(Cn2nc(-c3ncc(OC)c(Nc4ccncc4)n3)c(Br)c2C)c(F)c1` [Example 2-2-4, 2-[4-bromo-1-(4-ethoxy-2,6-difluorobenzyl)-5-methyl-1H-pyrazol-3-yl]-5-methoxy-N-(pyridin-4-yl)pyrimidin-4-amine]: 24 nM and 3300 nM.
The matching figures for `CCOC(=O)c1cnccc1Nc1ccnc(-c2nn(Cc3c(F)cc(OCC)cc3F)c(C3CC3)c2Cl)n1` [Example 2-2-2, ethyl 4-({2-[4-chloro-5-cyclopropyl-1-(4-ethoxy-2,6-difluorobenzyl)-1H-pyrazol-3-yl]pyrimidin-4-yl}amino)nicotinate]: 37 nM and 9200 nM.
On to `CCOc1cc(F)c(Cn2nc(-c3nccc(Nc4ccncc4C(=O)NCCO)n3)c(Cl)c2C2CC2)c(F)c1` [Example 2-4-1, 4-({2-[4-chloro-5-cyclopropyl-1-(4-ethoxy-2,6-difluorobenzyl)-1H-pyrazol-3-yl]pyrimidin-4-yl}amino)-N-(2-hydroxyethyl)nicotinamide], for which the IC50 in assay [1] is 54 nM; in the assay on HeLa cell line, greater than 10000 nM.
Take `CCOc1cc(F)c(Cn2nc(-c3ncc(OC)c(Nc4ccncc4)n3)c(C#N)c2C)c(F)c1` [Example 2-2-8, 1-(4-ethoxy-2,6-difluorobenzyl)-3-[5-methoxy-4-(pyridin-4-ylamino)pyrimidin-2-yl]-5-methyl-1H-pyrazole-4-carbonitrile]: in assay [1] (setting [2]), the IC50 turned out to be 3200 nM.
On to `CCOc1cc(F)c(Cn2cc(Cl)c(-c3ncc(OC)c(Nc4ccncc4C(N)=O)n3)n2)c(F)c1` [Example 2-4-3, 4-({2-[4-chloro-1-(4-ethoxy-2,6-difluorobenzyl)-1H-pyrazol-3-yl]-5-methoxypyrimidin-4-yl}amino)nicotinamide], for which the IC50 in assay [1] (setting [2]) is 7.4 nM; with HeLa cell line, greater than 10000 nM.
For `CCOc1cc(F)c(Cn2nc(-c3nccc(Nc4ccncc4C(=O)O)n3)c(Cl)c2C2CC2)c(F)c1` [Example 2-3-1, 4-({2-[4-chloro-5-cyclopropyl-1-(4-ethoxy-2,6-difluorobenzyl)-1H-pyrazol-3-yl]pyrimidin-4-yl}amino)nicotinic acid], the IC50 in assay [1] was determined as 11 nM.
In the case of `CCOc1cc(F)c(Cn2cc(N(C)C)c(-c3ncc(OC)c(Nc4ccncc4)n3)n2)c(F)c1` [Example 2-2-10, 2-[4-(dimethylamino)-1-(4-ethoxy-2,6-difluorobenzyl)-1H-pyrazol-3-yl]-5-methoxy-N-(pyridin-4-yl)pyrimidin-4-amine], the IC50 was 250 nM in assay [1] (setting [2]) and greater than 10000 nM with HeLa cell line.
The matching figures for `CCOc1cc(F)c(Cn2nc(-c3ncc(OC)c(Nc4ccncc4)n3)c(C)c2Br)c(F)c1` [Example 2-2-11, 2-[5-bromo-1-(4-ethoxy-2,6-difluorobenzyl)-4-methyl-1H-pyrazol-3-yl]-5-methoxy-N-(pyridin-4-yl)pyrimidin-4-amine]: 13 nM and 1300 nM.
The matching figures for `CCOc1cc(F)c(Cn2nc(-c3ncc(OC)c(Nc4ccncc4C(=O)NC)n3)c(F)c2C)c(F)c1` [Example 2-4-4, 4-({2-[1-(4-ethoxy-2,6-difluorobenzyl)-4-fluoro-5-methyl-1H-pyrazol-3-yl]-5-methoxypyrimidin-4-yl}amino)-N-methylnicotinamide]: 10 nM and greater than 10000 nM.
The matching figures for `CCOc1cc(F)c(Cn2nc(-c3ncc(OC)c(Nc4ccncc4)n3)c(F)c2C)c(F)c1` [Example 2-2-6, 2-[1-(4-ethoxy-2,6-difluorobenzyl)-4-fluoro-5-methyl-1H-pyrazol-3-yl]-5-methoxy-N-(pyridin-4-yl)pyrimidin-4-amine]: 41 nM and 4500 nM.
As for `CCOc1cc(F)c(Cn2nc(-c3ncc(OC)c(Nc4ccncc4)n3)c(Cl)c2C)c(F)c1` [Example 2-2-3, 2-[4-chloro-1-(4-ethoxy-2,6-difluorobenzyl)-5-methyl-1H-pyrazol-3-yl]-5-methoxy-N-(pyridin-4-yl)pyrimidin-4-amine], the IC50 in assay [1] (setting [2]) is 10 nM; in the assay on HeLa cell line, 3800 nM.
With `CCOc1cc(F)c(Cn2nc(-c3nccc(Nc4ccncc4)n3)c(Cl)c2C2CC2)c(F)c1` [Example 2-2-1, 2-[4-chloro-5-cyclopropyl-1-(4-ethoxy-2,6-difluorobenzyl)-1H-pyrazol-3-yl]-N-(pyridin-4-yl)pyrimidin-4-amine], the IC50 in assay [1] came to 5.6 nM; with HeLa cell line it was 8800 nM.
Consider `CCOC(=O)c1cnccc1Nc1nc(-c2nn(Cc3c(F)cc(OCC)cc3F)c(C)c2F)ncc1OC` [Example 2-2-9, ethyl 4-({2-[1-(4-ethoxy-2,6-difluorobenzyl)-4-fluoro-5-methyl-1H-pyrazol-3-yl]-5-methoxypyrimidin-4-yl}amino)nicotinate], for which the IC50 in assay [1] (setting [2]) amounted to 40 nM.
For the molecule `CCOc1cc(F)c(Cn2nc(-c3nccc(Nc4ccncc4C(=O)NC)n3)c(Cl)c2C2CC2)c(F)c1` [Example 2-1-1, 4-({2-[4-chloro-5-cyclopropyl-1-(4-ethoxy-2,6-difluorobenzyl)-1H-pyrazol-3-yl]pyrimidin-4-yl}amino)-N-methylnicotinamide], the results for the IC50 (in assay [1] (setting [2]); in the assay on HeLa cell line) were 4.7 nM and greater than 10000 nM, respectively.
On to `CCOc1cc(F)c(Cn2cc(Cl)c(-c3ncc(OC)c(Nc4ccncc4C(=O)NC)n3)n2)c(F)c1` [Example 2-4-2, 4-({2-[4-chloro-1-(4-ethoxy-2,6-difluorobenzyl)-1H-pyrazol-3-yl]-5-methoxypyrimidin-4-yl}amino)-N-methylnicotinamide], for which the IC50 in assay [1] (setting [2]) was 13 nM; with HeLa cell line it was greater than 10000 nM.
The matching figures for `CCOc1cc(F)c(Cn2nc(-c3nccc(Nc4ccncc4C(N)=O)n3)c(Cl)c2C2CC2)c(F)c1` [Example 2-1-2, 4-({2-[4-chloro-5-cyclopropyl-1-(4-ethoxy-2,6-difluorobenzyl)-1H-pyrazol-3-yl]pyrimidin-4-yl}amino)nicotinamide]: 8.1 nM and 8600 nM.
The matching figures for `CCOc1cc(F)c(Cn2cc(Cl)c(-c3ncc(OC)c(Nc4ccncc4)n3)n2)c(F)c1` [Example 2-2-5, 2-[4-chloro-1-(4-ethoxy-2,6-difluorobenzyl)-1H-pyrazol-3-yl]-5-methoxy-N-(pyridin-4-yl)pyrimidin-4-amine]: 33 nM and 6800 nM.
